Data on 6 molecules can be found in paper PMC3088499 (Journal of medicinal chemistry, 2008).

Test [1] deals with T1, 5-HT2A receptor F340^6.52L mutant (Rattus norvegicus, UniProt P14842, F340L). The test can be described thus: [3H]ketanserin binding at F340L mutant 5-HT2A receptor. The following applies: F340L vs wild type 5-HT2A.
For test [2], the target named is NET (Homo sapiens, UniProt P23975). Kind of test: [3H]nisoxitine binding, NET.
The target of test [3] is T1, 5-HT2A receptor F340^6.52L mutant. As to conditions: F340L vs wild type 5-HT2A, fold decrease; ref [41]; cited from earlier work.
The target in test [4] is 5-HT2A sites. As to conditions: read-out: Ki, 5-HT2A receptor affinity; [3H]Ketanserin-labeled 5-HT2A sites; ref [13]; cited from earlier work.
Test [5] concerns 5-HT2A F125^2.55L mutant. As to conditions: cited from earlier work.
The test system of test [6] is 5-HT2A F125^2.55S mutant. As to conditions: ref [107]; cited from earlier work.
The test system of test [7] is 5-HT2A M132^2.62L mutant. The following applies: ref [107]; cited from earlier work.
Test [8] relates to 5-HT2A T134^2.64A mutant. The following applies: ref [107]; cited from earlier work.
Test [9] concerns 5-HT2A S159^3.36A mutant. The following applies: ref [45]; cited from earlier work.
Test [10] concerns 5-HT2A S159^3.36C mutant. As to conditions: ref [45]; cited from earlier work.
Test [11] concerns 5-HT2A D172^3.49N mutant. As to conditions: ref [105]; cited from earlier work.
The test system of test [12] is 5-HT2A W200^4.50A mutant. As to conditions: ref [44]; cited from earlier work.
For test [13], the system named is 5-HT2A F340^6.52L mutant. As to conditions: cited from earlier work.
The subject of test [14] is 5-HT2A W367^7.40L mutant. As to conditions: ref [44]; cited from earlier work.

“Also recorded” adds a separate entry of the source. Counter-ions that a name gives are not always drawn. Like-named read-outs stand apart in the source and are kept apart here.

T1 sequence (P14842 whole entry F340L): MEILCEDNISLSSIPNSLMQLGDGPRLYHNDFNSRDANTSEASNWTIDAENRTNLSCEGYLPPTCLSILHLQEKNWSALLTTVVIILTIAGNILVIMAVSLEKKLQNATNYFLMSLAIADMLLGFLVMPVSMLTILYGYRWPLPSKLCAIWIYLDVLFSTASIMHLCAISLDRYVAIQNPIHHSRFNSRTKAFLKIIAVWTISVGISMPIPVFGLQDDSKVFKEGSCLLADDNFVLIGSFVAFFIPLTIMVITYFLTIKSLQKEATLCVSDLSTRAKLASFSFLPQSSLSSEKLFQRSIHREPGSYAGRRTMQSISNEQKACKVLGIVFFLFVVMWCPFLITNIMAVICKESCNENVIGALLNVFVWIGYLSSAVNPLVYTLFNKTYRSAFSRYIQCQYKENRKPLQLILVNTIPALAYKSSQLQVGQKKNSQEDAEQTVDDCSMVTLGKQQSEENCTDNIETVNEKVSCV
NET, sequence (P23975 whole entry): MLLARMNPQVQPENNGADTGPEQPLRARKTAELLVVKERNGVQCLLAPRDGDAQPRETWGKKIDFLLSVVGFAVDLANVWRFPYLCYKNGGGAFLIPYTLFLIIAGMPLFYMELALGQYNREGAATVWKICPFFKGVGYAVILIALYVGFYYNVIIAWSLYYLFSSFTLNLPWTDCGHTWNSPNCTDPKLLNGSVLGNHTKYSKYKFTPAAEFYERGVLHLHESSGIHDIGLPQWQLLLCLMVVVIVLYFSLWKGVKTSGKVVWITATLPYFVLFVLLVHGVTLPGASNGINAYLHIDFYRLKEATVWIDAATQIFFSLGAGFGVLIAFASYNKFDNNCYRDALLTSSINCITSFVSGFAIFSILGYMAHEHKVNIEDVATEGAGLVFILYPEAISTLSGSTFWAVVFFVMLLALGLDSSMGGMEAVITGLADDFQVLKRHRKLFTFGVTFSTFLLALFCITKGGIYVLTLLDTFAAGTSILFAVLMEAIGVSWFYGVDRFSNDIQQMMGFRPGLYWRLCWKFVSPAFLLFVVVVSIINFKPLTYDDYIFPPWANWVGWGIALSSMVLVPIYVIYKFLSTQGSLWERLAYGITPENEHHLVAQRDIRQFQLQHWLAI

Regarding `NCC1c2ccccc2Cc2cc(Br)ccc21` (stereo not shown) [Compound 1b, 3-Bromo-9-aminomethyl-9,10-dihydroanthracene hydrochloride], in [1], the “decrease in affinity at F340L mutant compared to wild type receptor” value is reported as “no change in affinity”.

As to `CCCCCCc1ccc2c(c1)Cc1ccccc1C2CN` (stereo not shown) [Compound 1d, 3-n-Hexyl-9-aminomethyl-9,10-dihydroanthracene fumarate], the “selectivity for the 5-HT2A receptor over the norepinephrine transporter” value in test [2] was 120 fold.

In the case of `COc1cc(CC(C)N)c(OC)cc1I` (stereo not shown) [DOI, 2,5-dimethoxy-4-iodoamphetamine], the “effect of F340L mutation on affinity” value in test [3] is listed as “approximately 14,000 fold”.

With `NCC1c2ccccc2Cc2ccccc21` [Compound 1a, 9-aminomethyl-9,10-dihydroanthracene], the “decrease in affinity at F340L mutant compared to wild type receptor” value in [1] turned out to be 3 fold.

Turning to `COc1cc(CC(C)N)c(OC)cc1O` (stereo not shown) [Compound 2g], the Ki in [4] is greater than 50 µM.

On to `O=C(c1ccc(F)cc1)C1CCN(CCn2c(=O)[nH]c3ccccc3c2=O)CC1` [ketanserin], for which the “effect of F340L mutation on affinity” value in test [3] is “little effect”. Moreover, the “Effect on ketanserin binding affinity” value in [5] (ref [44]), in test [5] (ref [104]), in test [5] (ref [106]), in [6], in test [7] and in test [8] was “no effect” throughout. In addition, the “Effect on ketanserin binding affinity” value in test [9], in test [10], in [11], in [12], in test [13] (ref [104]) and in test [13] (ref [107]) was “no effect” in each case. Besides, the “Effect on ketanserin binding affinity” value in test [14] was “abolished; also recorded: no detectable binding”.
